What was measured:
Experiment in all cases: Kinase selectivity profile assay
Assay type in all cases: biochemical
PKCb1 = biological target: T1, PKCb1 (Homo sapiens, UniProt P05771); settings: 500 nM; relative to DMSO; read-out: Residual enzymatic activity
T1 construct: purchased Reaction Biology Corporation
In short: (§1)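 Radiometric kinase assay run by a standard protocol. Unbound phosphate was removed by washing filters in phosphoric acid, and product radioactivity gave percent remaining kinase activity versus DMSO vehicle reactions. Run in duplicate.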

AXL = biological target: T2, AXL (Homo sapiens, UniProt P30530); settings: 500 nM; relative to DMSO; read-out: Residual enzymatic activity
T2 construct: purchased Reaction Biology Corporation
In short: as §1

MAPKAPK3 = biological target: T3, MAPKAPK3 (Homo sapiens, UniProt Q16644); settings: 500 nM; relative to DMSO; read-out: Residual enzymatic activity
T3 construct: purchased Reaction Biology Corporation
In short: as §1

CK1g2 = biological target: T4, CK1g2 (Homo sapiens, UniProt P78368); settings: 500 nM; relative to DMSO; read-out: Residual enzymatic activity
T4 construct: purchased Reaction Biology Corporation
In short: as §1

MELK = biological target: T5, MELK (Homo sapiens, UniProt Q14680); settings: 500 nM; relative to DMSO; read-out: Residual enzymatic activity
T5 construct: purchased Reaction Biology Corporation
In short: as §1

IRAK4 = biological target: T6, IRAK4 (Homo sapiens, UniProt Q9NWZ3); settings: 500 nM; relative to DMSO; read-out: Residual enzymatic activity
T6 construct: purchased Reaction Biology Corporation
In short: as §1

FGFR4 = biological target: T7, FGFR4 (Homo sapiens, UniProt P22455); settings: 500 nM, relative to DMSO
T7 construct: purchased Reaction Biology Corporation
In short: as §1

BRAF = biological target: T8, BRAF (Homo sapiens, UniProt P15056); settings: 500 nM; relative to DMSO; read-out: Residual enzymatic activity
T8 construct: purchased Reaction Biology Corporation
In short: as §1

HIPK2 = biological target: T9, HIPK2 (Homo sapiens, UniProt Q9H2X6); settings: 500 nM; relative to DMSO; read-out: Residual enzymatic activity
T9 construct: purchased Reaction Biology Corporation
In short: as §1

PIM1 = biological target: T10, PIM1 (Homo sapiens, UniProt P11309); settings: 500 nM; relative to DMSO; read-out: Residual enzymatic activity
T10 construct: purchased Reaction Biology Corporation
In short: as §1

FLT4/VEGFR3 = biological target: T11, FLT4/VEGFR3 (Homo sapiens, UniProt P35916); settings: for remaining activity at 0.5 µM: 500 nM, relative to DMSO, read-out: Residual enzymatic activity
T11 construct: purchased Reaction Biology Corporation (assay service)
T11 sequence (P35916 25-1363): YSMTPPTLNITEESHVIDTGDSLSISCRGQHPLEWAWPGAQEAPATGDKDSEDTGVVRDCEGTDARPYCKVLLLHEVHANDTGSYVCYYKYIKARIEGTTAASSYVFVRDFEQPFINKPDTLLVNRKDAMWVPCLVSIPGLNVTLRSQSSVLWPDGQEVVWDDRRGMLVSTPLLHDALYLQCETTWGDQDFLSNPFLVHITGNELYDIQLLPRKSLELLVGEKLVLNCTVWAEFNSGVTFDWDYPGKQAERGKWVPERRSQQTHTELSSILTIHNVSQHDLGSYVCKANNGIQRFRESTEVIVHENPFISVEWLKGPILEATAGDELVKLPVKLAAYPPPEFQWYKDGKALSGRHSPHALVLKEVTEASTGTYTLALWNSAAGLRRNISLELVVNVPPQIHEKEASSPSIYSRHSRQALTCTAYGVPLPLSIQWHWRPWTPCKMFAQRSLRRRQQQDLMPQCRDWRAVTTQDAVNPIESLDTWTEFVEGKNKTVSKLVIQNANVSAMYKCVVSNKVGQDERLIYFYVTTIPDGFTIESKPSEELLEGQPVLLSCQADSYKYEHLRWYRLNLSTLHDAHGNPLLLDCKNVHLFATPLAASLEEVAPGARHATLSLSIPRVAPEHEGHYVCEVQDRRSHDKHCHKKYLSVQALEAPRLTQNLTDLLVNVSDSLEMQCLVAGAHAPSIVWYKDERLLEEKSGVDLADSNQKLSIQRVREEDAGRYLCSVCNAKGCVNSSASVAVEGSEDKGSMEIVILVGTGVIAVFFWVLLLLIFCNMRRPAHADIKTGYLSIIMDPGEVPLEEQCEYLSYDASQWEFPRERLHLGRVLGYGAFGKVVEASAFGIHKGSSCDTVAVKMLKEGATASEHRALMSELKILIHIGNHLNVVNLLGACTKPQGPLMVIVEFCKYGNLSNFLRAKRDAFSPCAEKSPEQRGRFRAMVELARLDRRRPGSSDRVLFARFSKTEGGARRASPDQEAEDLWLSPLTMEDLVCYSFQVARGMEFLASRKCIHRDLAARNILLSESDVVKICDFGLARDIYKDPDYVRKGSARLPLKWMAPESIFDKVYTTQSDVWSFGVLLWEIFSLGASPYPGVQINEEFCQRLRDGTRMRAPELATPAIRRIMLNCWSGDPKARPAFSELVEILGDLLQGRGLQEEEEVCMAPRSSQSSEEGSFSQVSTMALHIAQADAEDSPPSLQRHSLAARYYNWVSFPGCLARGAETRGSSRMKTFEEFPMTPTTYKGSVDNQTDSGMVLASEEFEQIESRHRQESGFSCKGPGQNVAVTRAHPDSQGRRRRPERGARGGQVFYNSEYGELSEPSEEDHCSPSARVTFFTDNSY
In short: as §1

LATS2 = biological target: T12, LATS2 (Homo sapiens, UniProt Q9NRM7); settings: 500 nM; relative to DMSO; read-out: Residual enzymatic activity
T12 construct: purchased Reaction Biology Corporation
In short: as §1

STK38/NDR1 = biological target: T13, STK38/NDR1 (Homo sapiens, UniProt Q15208); settings: 500 nM; relative to DMSO; read-out: Residual enzymatic activity
T13 construct: purchased Reaction Biology Corporation
In short: as §1

CHK1 = biological target: T14, CHK1 (Homo sapiens, UniProt O14757); settings: 500 nM; relative to DMSO; read-out: Residual enzymatic activity
T14 construct: purchased Reaction Biology Corporation
In short: as §1

GRK5 = biological target: T15, GRK5 (Homo sapiens, UniProt P34947); settings: 500 nM; relative to DMSO; read-out: Residual enzymatic activity
T15 construct: purchased Reaction Biology Corporation
In short: as §1

BRK = biological target: T16, BRK (Homo sapiens, UniProt Q13882); settings: 500 nM, relative to DMSO; for remaining activity at 0.5 µM: read-out: Residual enzymatic activity
T16 construct: purchased Reaction Biology Corporation
T16 sequence (Q13882 whole entry): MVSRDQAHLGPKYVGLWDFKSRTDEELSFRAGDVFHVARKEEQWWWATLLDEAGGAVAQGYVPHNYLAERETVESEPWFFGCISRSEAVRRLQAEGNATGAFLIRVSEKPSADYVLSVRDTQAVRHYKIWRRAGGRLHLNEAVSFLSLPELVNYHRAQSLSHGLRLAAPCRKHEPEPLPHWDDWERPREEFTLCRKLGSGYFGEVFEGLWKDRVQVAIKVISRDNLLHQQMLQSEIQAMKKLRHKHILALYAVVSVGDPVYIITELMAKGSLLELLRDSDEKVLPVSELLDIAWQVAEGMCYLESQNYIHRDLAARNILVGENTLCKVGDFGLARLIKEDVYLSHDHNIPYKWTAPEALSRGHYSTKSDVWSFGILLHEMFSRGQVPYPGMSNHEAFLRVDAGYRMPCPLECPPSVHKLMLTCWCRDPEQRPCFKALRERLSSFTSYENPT
In short: as §1

PKCg = biological target: T17, PKCg (Homo sapiens, UniProt P05129); settings: 500 nM; relative to DMSO; read-out: Residual enzymatic activity
T17 construct: purchased Reaction Biology Corporation
In short: as §1

RSK3 = biological target: T18, RSK3 (Homo sapiens, UniProt Q15349); settings: 500 nM; relative to DMSO; read-out: Residual enzymatic activity
T18 construct: purchased Reaction Biology Corporation
In short: as §1

CSK = biological target: T19, CSK (Homo sapiens, UniProt P41240); settings: for remaining activity at 0.5 µM: 500 nM, relative to DMSO, read-out: Residual enzymatic activity
T19 construct: purchased Reaction Biology Corporation (assay service)
T19 sequence (P41240 whole entry): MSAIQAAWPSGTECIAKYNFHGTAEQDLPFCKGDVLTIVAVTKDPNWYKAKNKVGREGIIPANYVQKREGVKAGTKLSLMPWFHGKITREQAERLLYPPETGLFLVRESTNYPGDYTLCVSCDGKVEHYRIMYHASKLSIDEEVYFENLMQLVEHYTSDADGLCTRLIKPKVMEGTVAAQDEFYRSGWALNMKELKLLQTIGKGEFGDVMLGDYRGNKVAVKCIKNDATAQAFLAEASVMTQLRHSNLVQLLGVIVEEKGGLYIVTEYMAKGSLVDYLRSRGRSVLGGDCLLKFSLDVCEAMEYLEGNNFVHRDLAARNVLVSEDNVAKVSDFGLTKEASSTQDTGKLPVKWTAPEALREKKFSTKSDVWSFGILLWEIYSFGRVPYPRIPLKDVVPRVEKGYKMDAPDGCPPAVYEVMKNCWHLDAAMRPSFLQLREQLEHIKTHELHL
In short: as §1

FGR = biological target: T20, FGR (Homo sapiens, UniProt P09769); settings: for remaining activity at 0.5 µM: 500 nM, relative to DMSO, read-out: Residual enzymatic activity
T20 construct: purchased Reaction Biology Corporation (assay service)
T20 sequence (P09769 whole entry): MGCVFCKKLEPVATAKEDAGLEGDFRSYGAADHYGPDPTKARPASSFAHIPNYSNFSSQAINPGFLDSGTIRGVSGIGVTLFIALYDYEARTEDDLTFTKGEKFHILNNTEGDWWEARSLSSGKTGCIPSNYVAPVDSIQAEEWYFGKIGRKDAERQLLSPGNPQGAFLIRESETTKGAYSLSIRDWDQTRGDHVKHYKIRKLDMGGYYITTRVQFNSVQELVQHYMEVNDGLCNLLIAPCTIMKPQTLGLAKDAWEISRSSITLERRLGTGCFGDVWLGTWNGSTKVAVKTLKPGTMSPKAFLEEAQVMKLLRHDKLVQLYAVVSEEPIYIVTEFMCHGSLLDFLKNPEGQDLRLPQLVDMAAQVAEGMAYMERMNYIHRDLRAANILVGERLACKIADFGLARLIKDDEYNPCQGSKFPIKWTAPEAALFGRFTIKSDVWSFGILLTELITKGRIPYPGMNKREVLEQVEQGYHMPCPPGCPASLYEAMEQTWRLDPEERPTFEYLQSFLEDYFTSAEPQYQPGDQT
In short: as §1

MEKK1 = biological target: T21, MEKK1 (Homo sapiens, UniProt Q13233); settings: 500 nM; relative to DMSO; read-out: Residual enzymatic activity
T21 construct: purchased Reaction Biology Corporation
In short: as §1

PKCnu/PRKD3 = biological target: T22, PKCnu/PRKD3 (Homo sapiens, UniProt O94806); settings: 500 nM; relative to DMSO; read-out: Residual enzymatic activity
T22 construct: purchased Reaction Biology Corporation
In short: as §1

AKT2 = biological target: T23, AKT2 (Homo sapiens, UniProt P31751); settings: 500 nM; relative to DMSO; read-out: Residual enzymatic activity
T23 construct: purchased Reaction Biology Corporation
In short: as §1

MKK4 = biological target: T24, MKK4 (Homo sapiens, UniProt P45985); settings: 500 nM; relative to DMSO; read-out: Residual enzymatic activity
T24 construct: purchased Reaction Biology Corporation
In short: as §1

RIPK2 = biological target: T25, RIPK2 (Homo sapiens, UniProt O43353); settings: 500 nM; relative to DMSO; read-out: Residual enzymatic activity
T25 construct: purchased Reaction Biology Corporation
In short: as §1

EPHA7 = biological target: T26, EPHA7 (Homo sapiens, UniProt Q15375); settings: 500 nM, relative to DMSO; for remaining activity at 0.5 µM: read-out: Residual enzymatic activity
T26 construct: purchased Reaction Biology Corporation
T26 sequence (Q15375 28-998): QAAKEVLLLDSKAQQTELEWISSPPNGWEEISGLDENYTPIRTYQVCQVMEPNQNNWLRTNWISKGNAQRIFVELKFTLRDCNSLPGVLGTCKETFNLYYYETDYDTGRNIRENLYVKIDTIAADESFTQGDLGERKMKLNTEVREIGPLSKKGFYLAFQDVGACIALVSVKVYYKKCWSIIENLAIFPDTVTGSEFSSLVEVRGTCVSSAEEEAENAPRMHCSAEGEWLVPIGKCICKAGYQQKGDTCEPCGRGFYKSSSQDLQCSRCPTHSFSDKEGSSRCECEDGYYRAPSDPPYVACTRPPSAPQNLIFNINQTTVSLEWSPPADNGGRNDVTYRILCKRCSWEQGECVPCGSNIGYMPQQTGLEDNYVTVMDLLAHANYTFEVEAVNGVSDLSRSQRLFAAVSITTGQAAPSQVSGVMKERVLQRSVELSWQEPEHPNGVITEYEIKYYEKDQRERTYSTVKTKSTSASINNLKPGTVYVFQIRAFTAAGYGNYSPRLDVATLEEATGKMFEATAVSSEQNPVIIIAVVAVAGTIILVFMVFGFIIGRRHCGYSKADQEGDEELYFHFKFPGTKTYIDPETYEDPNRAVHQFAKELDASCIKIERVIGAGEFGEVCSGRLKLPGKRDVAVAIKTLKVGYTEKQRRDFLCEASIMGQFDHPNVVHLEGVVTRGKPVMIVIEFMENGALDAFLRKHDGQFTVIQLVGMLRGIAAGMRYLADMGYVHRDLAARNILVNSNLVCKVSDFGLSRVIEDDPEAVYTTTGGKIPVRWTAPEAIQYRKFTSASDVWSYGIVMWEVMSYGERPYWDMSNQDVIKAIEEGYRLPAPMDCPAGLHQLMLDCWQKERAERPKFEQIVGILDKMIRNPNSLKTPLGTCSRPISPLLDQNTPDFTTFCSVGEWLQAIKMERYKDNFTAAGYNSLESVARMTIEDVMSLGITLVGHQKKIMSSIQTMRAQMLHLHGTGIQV
In short: as §1

TAOK1 = biological target: T27, TAOK1 (Homo sapiens, UniProt Q7L7X3); settings: 500 nM; relative to DMSO; read-out: Residual enzymatic activity
T27 construct: purchased Reaction Biology Corporation
In short: as §1

MUSK = biological target: T28, MUSK (Homo sapiens, UniProt O15146); settings: 500 nM; relative to DMSO; read-out: Residual enzymatic activity
T28 construct: purchased Reaction Biology Corporation
In short: as §1

PDGFRb = biological target: T29, PDGFRb (Homo sapiens, UniProt P09619); settings: for remaining activity at 0.5 µM: 500 nM, relative to DMSO, read-out: Residual enzymatic activity
T29 construct: purchased Reaction Biology Corporation (Malvern, PA, USA)
T29 sequence (P09619 33-1106): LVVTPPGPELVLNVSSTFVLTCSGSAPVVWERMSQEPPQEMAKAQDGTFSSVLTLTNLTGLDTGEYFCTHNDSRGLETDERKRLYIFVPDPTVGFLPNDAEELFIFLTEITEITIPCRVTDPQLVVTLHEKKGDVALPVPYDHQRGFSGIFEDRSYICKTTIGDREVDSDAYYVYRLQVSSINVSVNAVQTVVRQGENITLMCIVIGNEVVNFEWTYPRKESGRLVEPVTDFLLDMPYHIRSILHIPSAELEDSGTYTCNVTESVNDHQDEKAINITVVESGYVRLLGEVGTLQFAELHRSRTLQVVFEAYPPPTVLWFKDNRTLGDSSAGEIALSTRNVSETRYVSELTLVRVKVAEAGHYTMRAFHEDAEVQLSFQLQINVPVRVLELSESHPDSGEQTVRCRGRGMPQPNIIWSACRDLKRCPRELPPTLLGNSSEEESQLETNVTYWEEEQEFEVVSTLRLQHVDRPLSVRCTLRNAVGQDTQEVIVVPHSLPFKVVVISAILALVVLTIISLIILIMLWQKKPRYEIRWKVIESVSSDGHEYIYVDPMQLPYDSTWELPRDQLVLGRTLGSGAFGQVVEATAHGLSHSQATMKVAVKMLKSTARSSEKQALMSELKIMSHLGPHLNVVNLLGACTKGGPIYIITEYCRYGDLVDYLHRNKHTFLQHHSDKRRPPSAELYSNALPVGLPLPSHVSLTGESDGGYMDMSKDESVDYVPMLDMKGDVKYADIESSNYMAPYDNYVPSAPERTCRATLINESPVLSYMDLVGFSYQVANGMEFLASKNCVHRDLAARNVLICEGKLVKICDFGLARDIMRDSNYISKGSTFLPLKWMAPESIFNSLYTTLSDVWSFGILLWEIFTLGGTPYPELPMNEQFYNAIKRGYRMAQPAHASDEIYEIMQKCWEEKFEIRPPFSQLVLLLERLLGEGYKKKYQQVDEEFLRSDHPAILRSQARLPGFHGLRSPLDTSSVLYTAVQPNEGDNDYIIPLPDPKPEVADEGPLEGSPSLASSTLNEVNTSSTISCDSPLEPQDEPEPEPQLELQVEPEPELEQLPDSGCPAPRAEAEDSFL
In short: as §1

HIPK4 = biological target: T30, HIPK4 (Homo sapiens, UniProt Q8NE63); settings: 500 nM; relative to DMSO; read-out: Residual enzymatic activity
T30 construct: purchased Reaction Biology Corporation
In short: as §1

[1] = 10-dose mode, threefold serial dilution from 10 μM

| Structure (SMILES) | remaining activity at 0.5 µM (PKCb1) | remaining activity at 0.5 µM (AXL) | remaining activity at 0.5 µM (MAPKAPK3) | remaining activity at 0.5 µM (CK1g2) | remaining activity at 0.5 µM (MELK) | remaining activity at 0.5 µM (IRAK4) | remaining activity at 0.5 µM (BRAF) | remaining activity at 0.5 µM (HIPK2) | remaining activity at 0.5 µM (PIM1) | remaining activity at 0.5 µM (FLT4/VEGFR3) | remaining activity at 0.5 µM (LATS2) | remaining activity at 0.5 µM (STK38/NDR1) | remaining activity at 0.5 µM (CHK1) | remaining activity at 0.5 µM (GRK5) | remaining activity at 0.5 µM (BRK) | remaining activity at 0.5 µM (PKCg) | remaining activity at 0.5 µM (RSK3) | remaining activity at 0.5 µM (CSK) | remaining activity at 0.5 µM (FGR) | remaining activity at 0.5 µM (MEKK1) | also measured |
| --- | --- | --- | --- | --- | --- | --- | --- | --- | --- | --- | --- | --- | --- | --- | --- | --- | --- | --- | --- | --- | --- |
| COc1cc(Nc2ncc(F)c(Nc3ccc4c(n3)NC(=O)C(C)(C)O4)n2)cc(OC)c1OC [R406, reference compound] | 63% | 44.5% | 102% | 101% | 54.7% | 41.9% | 95.9% | 94.9% | 99.2% | 4.9% | 51.2% | 70.4% | 78.6% | 96.4% | 27.6% | 63.6% | 52% | 20.6% | 15.7% | 100% | remaining activity at 0.5 µM (FGFR4; read-out: Residual enzymatic activity): 58%; remaining activity at 0.5 µM (PKCnu/PRKD3): 72.8%; remaining activity at 0.5 µM (AKT2): 110%; remaining activity at 0.5 µM (MKK4): 102%; remaining activity at 0.5 µM (RIPK2): 73%; remaining activity at 0.5 µM (EPHA7): 10.5%; remaining activity at 0.5 µM (TAOK1): 78.1%; remaining activity at 0.5 µM (MUSK): 62.1%; remaining activity at 0.5 µM (PDGFRb): 6.1%; remaining activity at 0.5 µM (HIPK4): 92.9% |
| COc1cc(Nc2ncnc(Nc3cc4c(cn3)NC(=O)C(C)(C)O4)n2)cc(OC)c1OC [MT-SYK-03] | 104% | 74.3% | 102% | 97.2% | 86.6% | 103% | 86.7% | 103% | 101% | 40.4% | 85.3% | 112% | 91.4% | 103% | > 54% | 103% | 91.6% | 34.8% | 22.6% | 105% | Residual enzymatic activity (FGFR4): 95.7%; IC50 (FLT4/VEGFR3; [1]): 55.4 nM; Residual enzymatic activity (BRK): 54.2%; IC50 (CSK; [1]): 238 nM; IC50 (FGR; [1]): 9 nM; remaining activity at 0.5 µM (PKCnu/PRKD3): 99.9%; remaining activity at 0.5 µM (AKT2): 106%; remaining activity at 0.5 µM (MKK4): 99.8%; remaining activity at 0.5 µM (RIPK2): 84.7%; Residual enzymatic activity (EPHA7): 58.4%; remaining activity at 0.5 µM (EPHA7): > 54%; remaining activity at 0.5 µM (TAOK1): 102%; remaining activity at 0.5 µM (MUSK): 79.9%; remaining activity at 0.5 µM (PDGFRb): 24.5%; IC50 (PDGFRb; [1]): 4.5 nM; remaining activity at 0.5 µM (HIPK4): 112% |

From paper PMC8632988, “Inhibition of SYK and cSrc kinases can protect bone and cartilage in preclinical models of osteoarthritis and rheumatoid arthritis” (Scientific Reports, 2021)
